Data from US4204879A, “Amino acid salts of anionic dyestuffs which have high solubility in organic solvents” (Williams (Hounslow) Limited, priority 1976, dated 1980).

Experiment: Maximum concentration of dye giving a solution stable for 24 hours at room temperature (Tables 2 and 3)
Assay type: physicochemical
Method: The solubility values given in these Tables are the maximum concentration of dye in grams/liter giving a solution stable for 24 hours at room temperature.

[1] = Table 2, 24 hours, room temperature, salts of 1:2 chromium complex of 2-amino-4-nitrophenol→3-methyl-1-phenyl-5-pyrazolone

| Substance | Solubility in Acetone (acetone, 24 h) | Solubility in Ethanol (24 h) | Solubility in Ethyl Acetate (ethyl acetate, 24 h) | Solubility in Acetone [1] | Solubility in Ethyl Acetate [1] |
| --- | --- | --- | --- | --- | --- |
| iso-tridecylamine | > 500 g.1^-1 | 200 g.1^-1 | < 50 g.1^-1 |  |  |
| N-phenylglycine | > 100 g.1^-1 | 50 g.1^-1 | 100 g.1^-1 |  |  |
| 2-ethylhexylamine | > 100 g.1^-1 | 30 g.1^-1 | < 5 g.1^-1 |  |  |
| aniline |  |  |  | 25 g.1^-1 | < 5 g.1^-1 |
